Consider four compounds from patent publication US12091650B2, “Development of spinal cord on a microfluidic chip” (EMULATE, INC., priority 2016, dated 2024).

Series [1] deals with neurons seeded in chip. It counts as cell-based, human.
Series [2] deals with SC-Chip neurons (lines 83GFP and 00iCTR). In kind it is cell-based, human.
Series [3] relates to blood brain barrier (BBB) on-chip. It counts as in vitro ADME, human. To be noted: FIG. 46A, % Dextran (fluorescence). The protocol: (§1) In some embodiments, methods for seeding cells on-chip are provided, as follows for one example: Day—1: Activate and Coat Chips, Day 0: Seed HBMECs, Astrocytes and Pericytes.; Day 1: Initiate flow of media @60 μl/hr. Bottom channel only or Top and bottom channels.; Day 2: Initiate permeability assay: Dextran+ Serum proteins+ Compounds of interest.; Day 3: End permeability assay. Collect media and freeze.; Day 4: Test permeability modulators/experimental stimuli Day 5: Repeat permeability assay.; Day 6: End permeability assay—Collect media and freeze. Fix or lyse chips.

Series [4] relates to iBMEC barrier function. The experiment in a line: TEER measurement on prototype TEER chips under flow. In kind it is cell-based, human. To be noted: FIG. 14A, chips under flow then exposed to TNFa. The protocol: Cells were plated on tall channel PDMS chips equipped with incorporated gold electrodes on each channel (see FIG. 13A). Post seeding of BMECs, transendothelial electrical resistance was measured by connecting the electrodes to an EVOM2 voltohmmeter (see FIG. 13B). […] The “damaged” chip was a failure due to the TEER-Chips being a prototype.
Higher TEER values generally indicate a tighter barrier, which is typically desirable for a blood-brain barrier.

The subject of series [5] is BMECs seeded on a microfluidic device. The experiment in a line: Paracellular permeability assay with Dextran-FITC on chip. It counts as cell-based, human. To be noted: FIG. 14B, TNFa exposure. Here is the method:
Albumin or Dextran conjugated to a fluorescent probe (e.g., FITC or TRITC) are frequently used to monitor changes in leakage, and thus barrier function. In this case, Dextran-FITC, a green fluorescent molecule of 4 KDa, or sodium fluorescein (a 0.3 KDa molecule), was added to the bottom (“blood side”) channel. Paracellular permeability was calculated by measuring the permeability of the fluorescent molecule on the Top (“brain side”) channel. […] FIG. 14B involves TNF-alpha exposure, but the readout is membrane permeability as measured by Dextran-FITC.

Series [6] relates to blood brain barrier (BBB) on-chip, iPS-derived brain endothelial cells. Kind of series: Barrier function test with human serum proteins (ELISA). It counts as in vitro ADME. To be noted: FIG. 47, ELISA. The protocol:
as §1

Entries after “also recorded” stand apart in the source; their conditions may differ.

For the compound `NC1=N[C@H](O)[C@H]2[C@H]3O[C@]4(O)O[C@@H]([C@@H](O)[C@@]2(N1)[C@@H]4O)[C@]3(O)CO` [tetrodotoxin], in series [1], the “effect on calcium flux (neuronal) activity” value is reported as “ablates this activity”. Moreover, the “neuron activity (calcium transients)” value in series [2] is reported as “completely ablated”.

In the case of Dextran, the “diffusion from Vascular Channel to Neuronal Channel” value in series [3] is recorded as “low diffusion”.

As for TNFa, the “iBMEC barrier function (TEER) after exposure” value in series [4] is “weakening of barrier function; also recorded: decrease in barrier function and TEER”. Besides, the “permeability through the semi-porous membrane by dextran-FITC after exposure” value in series [5] is given as “increase in permeability”.

On to “transferrin: human transferrin measured by ELISA”, for which, in series [6], the “diffusion / level in neuronal channel, from Vascular Channel to Neuronal Channel” value is “High levels”.
